Like-named read-outs stand apart in the source and are kept apart here.
Tests used:
Assay type in all cases: cell-based, Human
Hela cells = assay: Inhibitory effect of compounds on Hela cell proliferation; conditions: read-out: IC50, inhibitory activity on Hela cell proliferation
A549 cells = assay: Inhibitory effect of compounds on A549 cell proliferation; conditions: read-out: IC50, inhibitory activity on A549 cell proliferation
NCI-N87 cells = assay: Inhibitory effect of compounds on NCI-N87 cell proliferation
Method in brief: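 Adherent NCI-N87 cells were exposed to compound dilutions for 72 h. Viability measured by Cell Counting-Lite 2.0 luminescence, with inhibition calculated against vehicle and cell-free background RLU. IC50 from four-parameter fit.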

HT29 cells = assay: Inhibitory effect of compounds on HT29 cell proliferation; conditions: read-out: IC50, inhibitory activity on HT29 cell proliferation
Method in brief: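 Adherent HT29 cells incubated with diluted compounds for 72 h; viability read by luminescence (Cell Counting-Lite 2.0, 10 min). Inhibition calculated against cell-free background and vehicle-treated cells; IC50 from four-parameter curve fit.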

HCC70 cells = assay: Inhibitory effect of compounds on HCC70 cell proliferation; conditions: read-out: IC50, inhibitory activity on HCC70 cell proliferation
Experimental: (1) Cell plating: First, tumor cells HCC70 were cultured in corresponding medium, then digested with trypsin, centrifuged, resuspended, and counted, and the cells were adjusted to an appropriate concentration for plating.
Co-incubation of the compound of the present disclosure and tumor cells: after the cells adhered to the wall, the medium was removed, and the diluted bioactive molecule (the compound of the present disclosure) was added to the wells of the above plate, and incubated for 72 h.
In vitro cell viability detection: After the incubation, 50 μL of Cell Counting-Lite™ 2.0 reagent (Vazyme/Novazyme) was added to each well, shaken and mixed well in the dark, reacted for 10 minutes, and then the detection was carried out with a microplate reader (manufacturer: BMG, Model: PHERAStar-FS) for reading. The background RLU was obtained by using cell-free medium (with Cell Counting-Lite™), and the vehicle RLU was obtained by using cell-containing medium (with Cell Counting-Lite™). Cell inhibition rate=1−(sample RLU−background RLU)/(solvent RLU−background RLU)×100%. According to the four-parameter model fitting curve, the half maximal inhibitory concentration (IC50) of the compound was calculated, and the detection results were shown in Table 16.

NCI-H358 cells = assay: Inhibitory effect of compounds on NCI-H358 cell proliferation
Method in brief: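 Adherent NCI-H358 cells were exposed to compound for 72 h, then viability was read by luminescence (Cell Counting-Lite 2.0). Inhibition calculated from RLU relative to cell-free background and vehicle wells; IC50 from a four-parameter fit.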

[1] = Homo sapiens, NCI-N87, 72 h, read-out: IC50, inhibitory activity on NCI-N87 cell proliferation, NCI-N87 human gastric cancer cells, 72 h incubation, Cell Counting-Lite 2.0
[2] = Homo sapiens, NCI-H358, 72 h, read-out: IC50, inhibitory activity on NCI-H358 cell proliferation, NCI-H358 human non-small cell lung cancer cells, 72 h incubation, Cell Counting-Lite 2.0

`CC#C[C@@H](O)C(=O)N[C@H]1CCc2c(C)c(F)cc3nc4c(c1c23)Cn1c-4cc2c(c1=O)COC(=O)[C@]2(O)CC` [Example 1 (1-1-A), (R)—N-((1S,9S)-9-ethyl-5-fluoro-9-hydroxy-4-methyl-10,13-dioxo-2,3,9,10,13,15-hexahydro-1H,12H-benzo[de]pyrano[3′,4′:6,7]indolizino[1,2-b]quinolin-1-yl)-2-hydroxypent-3-yneamide] gave an IC50 (Hela cells; Homo sapiens, HeLa, 72 h) of 4.57 nM, an IC50 (A549 cells; Homo sapiens, A549, 72 h) of 66.6 nM and an IC50 (NCI-N87 cells; [1]) of 4.58 nM. The IC50 (HT29 cells; Homo sapiens, HT-29, 72 h) was 1.28 nM, the IC50 (HCC70 cells; Homo sapiens, HCC70, 72 h) was 225 nM and the IC50 (NCI-H358 cells; [2]) was 65.2 nM.

`CC[C@@]1(O)C(=O)OCc2c1cc1n(c2=O)Cc2c-1nc1cc(Cl)c(C)c3c1c2[C@@H](NC(=O)[C@@H](O)C1CC1)CC3` [Example 5 (2-12-A), (2S)—N-((1S,9S)-5-chloro-9-ethyl-9-hydroxy-4-methyl-10,13-dioxo-2,3,9,10,13,15-hexahydro-1H,12H-benzo[de]pyrano[3′,4′:6,7]indolizino[1,2-b]quinolin-1-yl)-2-cyclopropyl-2-hydroxyacetamide] showed an IC50 (Hela cells; Homo sapiens, HeLa, 72 h) of 13.2 nM, an IC50 (A549 cells; Homo sapiens, A549, 72 h) of 6.96 nM and an IC50 (NCI-N87 cells; [1]) of 4.91 nM. It also gave an IC50 (HT29 cells; Homo sapiens, HT-29, 72 h) of 3.01 nM, an IC50 (HCC70 cells; Homo sapiens, HCC70, 72 h) of 171 nM and an IC50 (NCI-H358 cells; [2]) of 17.6 nM.

“(2S)—N-((1S,9S)-5-chloro-9-ethyl-9-hydroxy-4-methyl-10,13-dioxo-2,3,9,10,13,15-hexahydro-1H,12H-benzo[de]pyrano[3′,4′:6,7]indolizino[1,2-b]quinolin-1-yl)-2-hydroxypropylamine [Example 4 (2-7-A)]” was tested, and the IC50 (Hela cells; Hela human cervical cancer cells, 72 h incubation, Cell Counting-Lite 2.0) was 13.8 nM, the IC50 (A549 cells; A549 human lung cancer cells, 72 h incubation, Cell Counting-Lite 2.0) was 6.97 nM and the IC50 (NCI-N87 cells; NCI-N87 human gastric cancer cells, 72 h incubation, Cell Counting-Lite 2.0, read-out: IC50, inhibitory activity on NCI-N87 cell proliferation) was 3.76 nM. It also gave an IC50 (HT29 cells; HT29 human colon cancer cells, 72 h incubation, Cell Counting-Lite 2.0) of 1.56 nM, an IC50 (HCC70 cells; HCC70 human breast cancer cells, 72 h incubation, Cell Counting-Lite 2.0) of 151 nM and an IC50 (NCI-H358 cells; NCI-H358 human non-small cell lung cancer cells, 72 h incubation, Cell Counting-Lite 2.0, read-out: IC50, inhibitory activity on NCI-H358 cell proliferation) of 35.4 nM.

`CC[C@@]1(O)C(=O)OCc2c1cc1n(c2=O)Cc2c-1nc1cc(Cl)c(C)c3c1c2[C@H](NC(=O)[C@@H](O)C1CC1)CC3` [Example 5 (2-12-B), (2S)—N-((1R,9S)-5-chloro-9-ethyl-9-hydroxy-4-methyl-10,13-dioxo-2,3,9,10,13,15-hexahydro-1H,12H-benzo[de]pyrano[3′,4′:6,7]indolizino[1,2-b]quinolin-1-yl)-2-cyclopropyl-2-hydroxyacetamide] showed an IC50 (Hela cells; Homo sapiens, HeLa, 72 h) of 16.7 nM, an IC50 (A549 cells; Homo sapiens, A549, 72 h) of 5.52 nM and an IC50 (NCI-N87 cells; [1]) of 4.97 nM. For the same compound, the IC50 (HT29 cells; Homo sapiens, HT-29, 72 h) was 2.34 nM, the IC50 (HCC70 cells; Homo sapiens, HCC70, 72 h) was 176 nM and the IC50 (NCI-H358 cells; [2]) was 15.8 nM.

Reference: patent publication US20250346606A1, “CAMPTOTHECIN COMPOUND, PREPARATION METHOD THEREFOR, AND APPLICATION THEREOF” (SICHUAN KELUN-BIOTECH BIOPHARMACEUTICAL CO., LTD., priority 2021, published 2025)
